For experiment [1], the target named is Replicase polyprotein 1a (Severe acute respiratory syndrome-related coronavirus, UniProt P0C6U8). The experiment can be described thus: Inhibition of human SARS coronavirus 3C like protease.
The target in experiment [2] is Replicase polyprotein 1a (Severe acute respiratory syndrome-related coronavirus) (UniProt P0C6U8). The experiment can be described thus: Inhibition of human SARS coronavirus 3C like protease at 10 uM.

Structures are written as SMILES.

In turn, `Cc1cc2cc(CN(CCc3ccccc3C)C(=O)NCc3ccccc3)c(=O)[nH]c2cc1C` had an IC50 in experiment [1] of 17.2 µM. Further, in experiment [2], the inhibition was 40%.
For `O=C(CSc1nc(C2CCCCC2)nc2ccccc12)NCc1ccco1`, in that order: 18.2 µM and 30%.

The values are drawn from ChEMBL document CHEMBL1157171, “Structure-based virtual screening against SARS-3CL(pro) to identify novel non-peptidic hits” (Bioorg Med Chem, 2008).
